Non-standard residues stand in square brackets, D forms with d. Residues, ends and D or L forms follow the SMILES beside them. Phe(4-NO2) = N[C@@H](Cc1ccc([N+](=O)[O-])cc1)C(=O)O; Nle = CCCC[C@H](N)C(=O)O
What was measured:
[1] = system: TA-98 strain of S. typhimurium; test: Ames microbacterial assay; conditions: for […] PLATE WITHOUT S-9 / REVERTANTS PER PLATE WITH S-9 / REVERTANTS PER PLATE WITHOUT S-9: TA-98, spontaneous revertants subtracted
Description: The Ames microbacterial assay was used for these tests which were performed both with and without a microsomal enzyme/NADPH generating system. Briefly, this test measures the number of reverse mutations which occur in special histidine-dependent strains of Salmonella typhimurium. Positives (mutations) are scored as the number of revertant cells which are able to form colonies in a histidine-deficient growth medium after exposure to a mutagenic substance.
All substances were dissolved in sterile 0.9% sodium chloride (without preservatives) to concentrations of 10^-2, 10^-3 and 10^-4 Molar. The TA-98 strain of S. typhimurium was used and experiments were performed with and without exposure to S-9 rat liver microsomal enzymes and an NADPH generating system. This enzyme cocktail can metabolically activate some compounds to mutagenic species. In addition to the melanotropins, Doxorubicin (Adriamycin™) was also simultaneously tested. […] It was thus included to act as a positive control. […] For the actual evaluation of revertants, the identity of the specific test compound was blinded.

frog (Rana pipiens) = assay type: cell-based
Description: (§1) Biological effect on in vivo and in vitro melanosome dispersion was examined using the frog (Rana pipiens) and the lizard (Anolis caroliniensis). [See Hadley et al., Science 213:1025-1027(1981)]; similar examinations were conducted with respect to the duration of its ability to stimulate melanosome dispersion in vitro using the skin bioassay as described in Shimume, Endrochrinology, 54:553-560(1954). The in vitro results are depicted in Table I.

C57BL/6JA^y yellow mouse = test: subcutaneous injection, follicular melanogenesis in the yellow mouse; assay type: in vivo
Source text: Alpha-MSH and [Nle^4 D-Phe^7 ]--alpha-MSH were synthesized. Mice (C57BL/6JA^y) originally obtained from the Jackson Laboratories (Bar Harbor, ME) were raised in our laboratory with continuous access to food and water.
Melanotropins induce melanogenesis only during hair growth, and melanosomes are continuously incorporated into cells of the hair shaft as long as the hair remains in the anagen (proliferative) phase of the hair cycle. Eumelanin synthesis in only those hairs currently growing results in the formation of a pattern showing the specific areas on the animal in the anagen phase at the time of hormone injection.

[2] = system: Mice with some pigmentation on their skin; test: topical Azone cream on mice with some skin pigmentation; assay type: in vivo, mouse; conditions: 1.8% azone, MSH 0.001% or 0.003%
Source text: Example 4 was repeated with compositions comprising alpha-MSH or [Nle^4, D--Phe^7 ]-alpha-MSH in propylene glycol and 1-dodecylazacycloheptan-2-one [a synthetic polar surfactant previously known to enhance transdermal penetration of other compounds. See, e.g., Stoughton, R. B., Arch. Dematol. 118:479(1982); Stoughton, R. B. and W. O. McClure, Drug Devel. Indust. Pharm. 9(4):725(1983); (Azone)]. Although the vehicle was a solid at room temperature, it immediately softened and spread easily when applied to the shaved skin of the mouse.
In this example, the azone concentration was 1.8% and the MSH final concentration was either 0.001% (1mg/100g cream base) or 0.003%.
Mice with some pigmentation on their skin were treated with the same cream as Example 5.
The tails of the treated animals darkened in spite of not being directly treated topically.

C57BL/6JA^y mice = test: topical application in PEG ointment, follicular melanogenesis in the mouse; assay type: in vivo
Source text: An area (2-3 cm^2) of hair on the posterior dorsum of 48-day old mice was plucked; in mice of this age, hair follicles in the posterior dorsum are in the telogen (resting) phase of the hair cycle. Plucking hairs from resting follicles stimulates new hair growth and by 7 days later those hairs being erupting through the skin surface. Mice were fitted with cardboard collars to prevent investigation and spread of the ointment to non-treated areas of the skin and then housed individually in cages. The ointment containing [Nle^4, D-Phe^7 -]alpha-MSH (0.5 ml, 10^-6 M) was applied daily to the plucked area at the time of new hair eruption. A sample of emerging hair was removed prior to topical application of the melanotropin and every 24 hours thereafter for seven days.
Eumelanin was not visible within hairs taken from control mice. […] Only phaeomelanosomes were present in mice treated with the control ointment containing no melanotropin.

[3] = system: lizard (Anolis caroliniensis); assay type: cell-based
Description: as §1

[4] = single injection 0.05 ml, 10^-6 M

COc1cccc2c1C(=O)c1c(O)c3c(c(O)c1C2=O)C[C@@](O)(C(=O)CO)C[C@@H]3O[C@H]1C[C@H](N)[C@H](O)[C@H](C)O1 [Adriamycin, Doxorubicin]
[…] PLATE WITHOUT S-9 ([1]; 10 µg/ml): 230 | […] PLATE WITHOUT S-9 ([1]; 100 µg/ml): 1940 | […] PLATE WITHOUT S-9 ([1]; 1.0 g/ml): 0 | mutagenicity in vitro ([1]; TA-98, with and without S-9): significantly mutagenic

CCCC[C@H](NC(C)=O)C(=O)N[C@@H](CCC(=O)O)C(=O)N[C@@H](Cc1c[nH]cn1)C(=O)N[C@H](Cc1ccccc1)C(=O)N[C@@H](CCCNC(=N)N)C(=O)N[C@@H](Cc1c[nH]c2ccccc12)C(=O)NCC(N)=O [Ac--[Nle^4 --D-Phe^7]--alpha-MSH4-10 --NH2]
Relative Potency Frog (frog (Rana pipiens)): 0.02 | REVERTANTS PER PLATE WITH S-9 ([1]; 10^-2 M): 0 | REVERTANTS PER PLATE WITHOUT S-9 ([1]; 10^-2 M): 0 | REVERTANTS PER PLATE WITH S-9 ([1]; 10^-3 M): 0 | REVERTANTS PER PLATE WITHOUT S-9 ([1]; 10^-3 M): 0 | REVERTANTS PER PLATE WITH S-9 ([1]; 10^-4 M): 0 | REVERTANTS PER PLATE WITHOUT S-9 ([1]; 10^-4 M): 0

[Nle^4, D--Phe^7 ]--alpha-MSH [[Nle^4, D-Phe^7]-alpha-MSH]
coat color change (C57BL/6JA^y yellow mouse; 14 consecutive daily injections): entire coat color was found to be changed | duration of eumelanogenesis after the one injection (C57BL/6JA^y yellow mouse; [4]): 96 h | time to shift from phaeomelanin production to eumelanin synthesis within hair bulbs (C57BL/6JA^y yellow mouse; [4]): 24 h | histologic examination of pigment [2]: increased pigment in the areas of non-follicular melancytes | tail colour, tail not directly treated [2]: darkened | time to eumelanin within hair bulbs following application (C57BL/6JA^y mice; topical ointment 0.5 ml, 10^-6 M daily, microscopic examination): ≤ 24 h | melanosomes within follicular melanocytes, electron microscopic examination (C57BL/6JA^y mice; topical ointment daily): presence of eumelanotic melanosomes within follicular melanocytes

CCCC[C@H](NC(C)=O)C(=O)N[C@@H](CCC(=O)O)C(=O)N[C@@H](Cc1c[nH]cn1)C(=O)N[C@H](Cc1ccccc1)C(=O)N[C@H](CCCNC(=N)N)C(=O)N[C@@H](Cc1c[nH]c2ccccc12)C(=O)NCC(=O)N[C@@H](CCCCN)C(N)=O [Ac--[Nle^4 --D-Phe^7 --D-Arg^8]--alpha-MSH4-11 --NH2] (Ac-[Nle]EH[dF][dR]WGK-NH2)
Relative Potency Lizard [3]: 0.0022 | Relative Potency Frog (frog (Rana pipiens)): 0.00010

CCCC[C@H](NC(C)=O)C(=O)N[C@@H](CCC(=O)O)C(=O)N[C@@H](Cc1c[nH]cn1)C(=O)NCC(=O)N[C@@H](CCCNC(=N)N)C(=O)N[C@@H](Cc1c[nH]c2ccccc12)C(=O)NCC(=O)N[C@@H](CCCCN)C(N)=O [Ac--[Nle^4 --Gly^7]--alpha-MSH4-11 --NH2] (Ac-[Nle]EHGRWGK-NH2)
Relative Potency Lizard [3]: 0.0005 | Relative Potency Frog (frog (Rana pipiens)): 0.005

CCCC[C@H](NC(C)=O)C(=O)N[C@@H](CCC(=O)O)C(=O)N[C@@H](Cc1c[nH]cn1)C(=O)N[C@@H](Cc1ccc([N+](=O)[O-])cc1)C(=O)N[C@@H](CCCNC(=N)N)C(=O)N[C@@H](Cc1c[nH]c2ccccc12)C(=O)NCC(=O)N[C@@H](CCCCN)C(N)=O [Ac--[Nle^ 4 --pNO2 Phe^7]--alpha-MSH4-11 --NH2] (Ac-[Nle]EH[Phe(4-NO2)]RWGK-NH2)
Relative Potency Lizard [3]: 0.20 | Relative Potency Frog (frog (Rana pipiens)): 0.0009

CCCC[C@H](NC(C)=O)C(=O)N[C@@H](CCC(=O)O)C(=O)N[C@H](Cc1c[nH]cn1)C(=O)N[C@@H](Cc1ccccc1)C(=O)N[C@@H](CCCNC(=N)N)C(=O)N[C@@H](Cc1c[nH]c2ccccc12)C(=O)NCC(=O)N[C@@H](CCCCN)C(N)=O [Ac--[Nle^4 --D-His^6]--alpha-MSH4-11 --NH2] (Ac-[Nle]E[dH]FRWGK-NH2)
Relative Potency Lizard [3]: 0.002 | Relative Potency Frog (frog (Rana pipiens)): 0.0014
